{"source": "paper PMC11451537", "about": "“P2X7 receptors exhibit at least three modes of allosteric antagonism” (Science Advances, 2024)", "key": {"hP2X3": {"target": "T1, hP2X3 (Homo sapiens, UniProt P56373)", "T1 construct": "The hP2X1-WT, hP2X2-WT, hP2X3-WT, hP2X4-WT, and hP2X7-WT constructs used for electrophysiology are similarly unmodified full-length, wild-type receptor constructs; expressed in transfected cells; host or cells: Xenopus laevis oocytes injected with mRNA made from pcDNA3.1x", "T1 sequence (P56373 1-397)": "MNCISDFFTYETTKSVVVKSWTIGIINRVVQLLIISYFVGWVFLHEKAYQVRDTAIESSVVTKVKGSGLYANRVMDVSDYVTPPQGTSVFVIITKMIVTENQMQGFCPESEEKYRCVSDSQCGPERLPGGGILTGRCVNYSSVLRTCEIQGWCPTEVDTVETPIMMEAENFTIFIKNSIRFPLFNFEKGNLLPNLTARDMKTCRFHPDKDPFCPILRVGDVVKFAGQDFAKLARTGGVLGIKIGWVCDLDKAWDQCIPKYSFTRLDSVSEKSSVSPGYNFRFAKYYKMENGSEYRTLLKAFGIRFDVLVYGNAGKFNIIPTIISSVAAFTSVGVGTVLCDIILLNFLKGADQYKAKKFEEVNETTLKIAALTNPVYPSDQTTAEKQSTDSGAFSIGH", "assay": "TEVC inhibition dose-response (IC50), hP2X3 in Xenopus laevis oocytes", "type": "cell-based", "conditions": "1 μM ATP, mean ± SD, triplicate", "from_the_text": "To evaluate the inhibitory response of an antagonist for a dilution series, an initial excitatory signal was evoked at a subtype-specific concentration of ATP. Next, the antagonist was applied at a test concentration for 60 s and then coapplied at the same test concentration of the antagonist with the identical subtype-specific concentration of ATP. The antagonized signal was then normalized against the preceding excitatory signal evoked by ATP for each individual oocyte tested. The pre- and post-antagonist signals were evoked by 10 μM ATP for hP2X1, 10 μM ATP for hP2X2, 1 μM ATP for hP2X3, 50 μM ATP for hP2X4, and 100 μM ATP for P2X7. For the K297V mutation in rP2X7, pre- and post-antagonist signals were evoked by 300 μM ATP. Each dataset was then fit to a nonlinear regression named “[inhibitor] vs. response – Variable slope (four parameters)” in GraphPad Prism 9 to produce a sigmoidal curve and afford an IC50 value. Each singular condition was used to generate an average which is reported plus or minus its SD between three discrete trials."}, "rP2X7": {"target": "T2, rP2X7 (Rattus norvegicus, UniProt Q64663)", "T2 sequence (Q64663 1-595)": "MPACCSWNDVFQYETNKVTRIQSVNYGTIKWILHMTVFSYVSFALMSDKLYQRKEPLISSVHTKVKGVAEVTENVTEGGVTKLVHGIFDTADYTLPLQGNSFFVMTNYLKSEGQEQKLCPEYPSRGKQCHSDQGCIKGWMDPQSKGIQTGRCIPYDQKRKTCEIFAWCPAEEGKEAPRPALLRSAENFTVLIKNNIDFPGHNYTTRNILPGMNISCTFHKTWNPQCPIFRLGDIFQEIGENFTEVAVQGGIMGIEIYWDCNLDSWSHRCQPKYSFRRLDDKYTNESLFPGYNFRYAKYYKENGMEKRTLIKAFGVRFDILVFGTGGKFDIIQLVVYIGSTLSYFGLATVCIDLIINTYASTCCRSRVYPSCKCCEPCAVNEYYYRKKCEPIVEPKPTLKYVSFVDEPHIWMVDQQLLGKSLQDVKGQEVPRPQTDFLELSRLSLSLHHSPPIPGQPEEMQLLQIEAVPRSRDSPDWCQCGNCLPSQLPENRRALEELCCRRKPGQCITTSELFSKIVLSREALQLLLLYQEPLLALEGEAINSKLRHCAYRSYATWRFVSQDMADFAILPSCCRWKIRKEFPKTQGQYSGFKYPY", "assay": "Bio-layer interferometry (BLI), biotinylated rP2X7 on streptavidin biosensors, 2:1 Langmuir fit", "type": "binding", "conditions": "for kon: pH 7.4, 2:1 Langmuir model, 600-s association", "description": "Using a HiTrap desalting column (Cytiva), 1 ml of diluted purified rP2X7 was desalted into PBS buffer (pH 7.4). Protein-containing fractions were combined and concentrated before adjusting the pH to 8.0 with NaHCO3. NHS-PEG12-Biotin (Thermo Fisher Scientific) was added and incubated at 23°C for 60 min while shaking. PBS was used to dilute the biotinylated sample before four cycles of dilution and concentration to ensure the removal of free NHS-PEG12-Biotin via a 100-kDa concentrator (Millipore Sigma). After the final cycle, the absorbance at 280 nm of the concentrated sample was taken to quantify the amount of biotinylated rP2X7.\nA ForteBio Octet RED384 instrument with ForteBio Data Acquisition software 11.0 was used to carry out BLI experiments. The assays were performed at 30°C using 384-well tilted-bottom plates (Sartorius) while orbital shaking at 1000 RPM. Running buffer consisting of filtered (0.22 μm) PBS (pH 7.4) with 0.5 mM DDM (Anatrace). Streptavidin (SA) biosensor tips (Sartorius) were pre-equilibrated in running buffer for 20 min and loaded with 50 μg ml^−1 of biotinylated rP2X7 ligand or biocytin (Sigma-Aldrich) control for 1800s. Blocking of the loaded SA sensors using 100 μg ml^−1 of biocytin was then initiated for 150 s before washing with a running buffer for 60 s. A baseline of loaded sensors was taken in the running buffer for 120 s before dipping them into wells containing ligand dilutions (0.37 to 10 μM for methyl blue) for 600 s, and then returning the sensors to the running buffer for a 600-s disassociation step. Rate constants for association and disassociation were determined using ForteBio Data Analysis HT 11.0 evaluation software. The raw data were double reference subtracted for maximal signal between the large ligand and small analyte. Biocytin controls were the first subtraction across analyte concentrations, and the zero-analyte concentration was the second. The association rate constant (ka) and the dissociation rate constant (kd) were calculated for each interaction pair using an average of three independent assays containing at least four different concentrations that were globally fit to a 2:1 Langmuir binding model. Equilibrium dissociation constants (KD) were calculated as the ratio of kd to ka. The KD1, KD2, ka1, ka2, kd1, and kd2 values are reported as the average ± the SD of three replicate datasets for each analyte, with each dataset using at least four independent traces. The analyzed data were exported and plotted in GraphPad Prism 9.0."}, "[1]": {"conditions": "2:1 Langmuir model, 600-s dissociation"}}, "note": "Like-named read-outs stand apart in the source and are kept apart here."}
{"smiles": "O=S(=O)(O)c1ccc(N=C2C=CC(=C(c3ccc(Nc4ccc(S(=O)(=O)O)cc4)cc3)c3ccc(Nc4ccc(S(=O)(=O)O)cc4)cc3)C=C2)cc1", "note": "[methyl blue]", "values": [{"measurement": "IC50", "setting": "hP2X3", "value": "4000 ± 1000", "unit": "nM"}, {"measurement": "share of signal of the high-affinity component (KD1)", "setting": "rP2X7; 2:1 Langmuir model", "value": "67 ± 8", "unit": "%"}, {"measurement": "share of signal of the low-affinity component (KD2)", "setting": "rP2X7; 2:1 Langmuir model", "value": "33 ± 8", "unit": "%"}, {"measurement": "Kd", "setting": "rP2X7; 2:1 Langmuir model, 30°C, PBS pH 7.4 with 0.5 mM DDM, ratio of kd to ka, read-out: KD1 (high-affinity binding component)", "value": "260 ± 130", "unit": "nM"}, {"measurement": "rate constant for dissociation kd1", "setting": "rP2X7; [1]", "value": "1.1 ± 0.5 × 10^−4 s^−1"}, {"measurement": "rate constant for dissociation kd2", "setting": "rP2X7; [1]", "value": "1.3 ± 0.1 × 10^−2 s^−1"}, {"measurement": "kon", "setting": "rP2X7; read-out: rate constant for association ka1", "value": "450 ± 2000", "unit": "M⁻¹ s⁻¹"}, {"measurement": "kon", "setting": "rP2X7; read-out: rate constant for association ka2", "value": "9300 ± 2.3e+06", "unit": "M⁻¹ s⁻¹"}, {"measurement": "Kd", "setting": "rP2X7; read-out: KD2 (low-affinity binding component), 2:1 Langmuir model, 30°C, PBS pH 7.4 with 0.5 mM DDM, ratio of kd to ka", "value": "1500 ± 200", "unit": "nM"}]}
